The record followed here is publication PMC7815786, “Antimicrobial effects of syndiotactic polypeptides” (Scientific Reports, 2021).

Each structure is given as a SMILES string. Values after ≈ are worked out from the molar mass of the structure shown. Where a SMILES comes first, the peptide text is derived from it. [ ]: non-standard residue; d: D form.

In test [1] the test system is clinical isolate of drug resistant Staphylococcus aureus (sample 28401). The test is classed as cell-based. As to conditions: clinical isolate of drug resistant (sample 28401). The method, then: (§1) The antibacterial activity was performed using micro-dilution method as per Clinical and Laboratory Standards Institute (CLSI). Gentamicin resistant MRSA (ATCC 33592), Mycobacterium smegmatis (ATCC607) were procured from ATCC, Escherichia coli MG1655 has been sourced fromChaudhary laboratory, BSBE, IIT Guwahati. The clinical isolates was provided by Dr. Chimanjita Phukan (Guwahati Medical College Hospital, Bhangagarh, Guwahati, Assam). The media broth was procured from Himedia Laboratories. Overnight culture of Gentamicin resistant MRSA (ATCC 33592), Escherichia coli MG1655, clinical isolates [(S. aureus (drug resistant) and E. coli (multidrug resistant) supplementary table 2] were diluted to 10^6 CFU/mL in Nutrient Broth (NB). 100 µL of broth containing 50 µL of bacterial suspension and test peptides at various concentrations were incubated for 12 to 16 h at 37 °C[33]. Similarly, Mycobacterium smegmatis (ATCC607) was diluted to 10^6 CFU/mL in M7H9 media. 50 µL of bacterial suspension was treated with 50 µL peptides at various concentrations. The peptide bacterial suspension was incubated for 72 h at 37 °C. The antimicrobial potencies of the peptides were evaluated at 600 nm by a comparative assessment with untreated bacterial suspension (negative control). The Minimal Inhibitory Concentration (MIC) was reported at the lowest concentration, where no growth was observed, as per standard protocols. The serum sensitivity experiment was similar to antibacterial activity. In this experiment, 50% serum containing media was used, instead of media alone. The experiment with human serum was performed as per IHEC (Institute Human Ethics Committee) guidelines, at IIT Guwahati hospital, from healthy adult donors. All the protocols were approved by the IHEC, and performed, with the informed consent and written approval from the subjects.
(§2) Primary screening of the antibacterial activity of the peptides was performed against clinical isolates obtained from a tertiary referral hospital (Details in supplementary information, section 3). Resistant Staphylococcus aureus (Gram-positive) and E.coli (Gram negative) are the two clinical bacterial strains assayed in this study. The results of the antimicrobial assay are summarized in Fig. 4 and supplementary Table 2.
(§3) Supplementary Table 2. The in-vitro antimicrobial activity of designed peptides against clinical isolates of multi-drug resistant Staphylococcus aureus and Escherichia coli. The concentration is expressed in µM.

The subject of test [2] is clinical isolate of multi-drug resistant Escherichia coli (sample 28162). The test is classed as cell-based. As to conditions: clinical isolate of multi-drug resistant (sample 28162). As for the experimental part: as §1, §2, §3
Another test has as its system Escherichia coli MG1655. The test is classed as cell-based. The method, then:
as §1

In test [3] the test system is Mycobacterium smegmatis (ATCC607). The test is classed as cell-based. To be noted: ATCC607, 72 h. The method, then: as §1
Test [4] has as its system Gentamicin resistant MRSA (ATCC 33592). The test is classed as cell-based, Staphylococcus aureus. The method, then: as §1
For test [5], the system named is bacterial species tested (not specified). The test is classed as cell-based. To be noted: wet lab experiments, bacterial species not given. The method, then:
as §1
Several modes of action of AMP’s have been proposed, and the contentious issue primarily is whether the peptide is targeting the membrane, followed by its disruption or it penetrates the membrane invading cytoplasm, affecting cellular metabolism. […]

`CC(C)[C@@H](NC(=O)[C@H](Cc1c[nH]c2ccccc12)NC(=O)[C@H](NC(=O)[C@H](CCCCN)NC(=O)[C@@H](CCCCN)NC(=O)[C@H](CCCCN)NC(=O)[C@@H](Cc1c[nH]c2ccccc12)NC(=O)[C@@H](N)Cc1c[nH]c2ccccc12)C(C)C)C(=O)N[C@@H](CCCCN)C(=O)N[C@H](CCCCN)C(=O)N[C@@H](CCCCN)C(=O)N[C@H](Cc1c[nH]c2ccccc12)C(=O)N[C@@H](Cc1c[nH]c2ccccc12)C(N)=O` [AS04] (H-W[dW]K[dK]K[dV]W[dV]K[dK]K[dW]W-NH2): the “MIC S. aureus clinical isolate” value in test [1] amounted to 50 µM (≈ 95.8 µg/mL). For the same molecule, the “MIC E.coli clinical isolate” value in test [2] worked out at 25 µM (≈ 47.9 µg/mL). In addition, in the test on Escherichia coli MG1655, the “MIC E. coli, Medium” value was determined as 3.13 µM (≈ 6 µg/mL). Also, the “MIC M.smegmatis, Medium” value in test [3] is reported as 6.25 µM (≈ 12 µg/mL). In addition, the “MIC Gentamicin resistant MRSA, Medium” value in test [4] is 1.6 µM (≈ 3.06 µg/mL).
Consider `CC(C)C[C@H](NC(=O)[C@@H](Cc1c[nH]c2ccccc12)NC(=O)[C@H](CC(C)C)NC(=O)[C@@H](Cc1c[nH]c2ccccc12)NC(=O)[C@H](CCCNC(=N)N)NC(=O)[C@@H](CCCCN)NC(=O)[C@@H](N)CCCNC(=N)N)C(=O)N[C@H](CCCCN)C(=O)N[C@@H](CCCNC(=N)N)C(=O)N[C@H](CCCCN)C(=O)N[C@@H](Cc1c[nH]c2ccccc12)C(=O)N[C@H](CC(C)C)C(=O)N[C@@H](Cc1c[nH]c2ccccc12)C(N)=O` [AS02] (H-R[dK]R[dW]L[dW]L[dK]R[dK]W[dL]W-NH2), for which, in test [1], the “MIC S. aureus clinical isolate” value amounted to 50 µM (≈ 97.7 µg/mL). In test [2], the “MIC E.coli clinical isolate” value is recorded as 50 µM (≈ 97.7 µg/mL). Further, the “MIC E. coli, Medium” value in the test with Escherichia coli MG1655 is listed as 6.25 µM (≈ 12.2 µg/mL). In addition, the “MIC M.smegmatis, Medium” value in test [3] came out at 3.13 µM (≈ 6.12 µg/mL). Further, in test [4], the “MIC Gentamicin resistant MRSA, Medium” value was found to be 3.13 µM (≈ 6.12 µg/mL).
Consider `CC(C)C[C@@H](NC(=O)[C@H](Cc1c[nH]c2ccccc12)NC(=O)[C@@H](CC(C)C)NC(=O)[C@@H](N)Cc1c[nH]c2ccccc12)C(=O)N[C@@H](Cc1c[nH]c2ccccc12)C(=O)N[C@H](CC(C)C)C(=O)N[C@@H](Cc1c[nH]c2ccccc12)C(=O)N[C@@H](C(=O)N[C@@H](CCCCN)C(=O)N[C@H](CCCCN)C(=O)N[C@@H](C)C(=O)N[C@H](CCCCN)C(=O)N[C@@H](C)C(=O)N[C@H](CCCCN)C(=O)N[C@@H](CCCCN)C(N)=O)C(C)C` [AS08] (H-W[dL]W[dL]W[dL]W[dV]K[dK]A[dK]A[dK]K-NH2), for which the “MIC E. coli, Medium” value against Escherichia coli MG1655 is on record as 6.25 µM (≈ 12.4 µg/mL). The “MIC M.smegmatis, Medium” value in test [3] turned out to be 6.25 µM (≈ 12.4 µg/mL). For the same molecule, the “MIC values (summary in discussion)” value in test [5] fell in the range of 1 to 10 µM. Moreover, in test [4], the “MIC Gentamicin resistant MRSA, Medium” value came to 6.25 µM (≈ 12.4 µg/mL).
For `CC(C)[C@H](NC(=O)[C@@H](Cc1c[nH]c2ccccc12)NC(=O)[C@H](Cc1c[nH]c2ccccc12)NC(=O)[C@@H](CCCCN)NC(=O)[C@H](CCCNC(=N)N)NC(=O)[C@@H](CCCCN)NC(=O)[C@@H](NC(=O)[C@H](NC(=O)[C@H](Cc1c[nH]c2ccccc12)NC(=O)[C@@H](Cc1c[nH]c2ccccc12)NC(=O)[C@H](CCCNC(=N)N)NC(=O)[C@@H](CCCCN)NC(=O)[C@@H](N)CCCNC(=N)N)C(C)C)C(C)C)C(N)=O` [AS01] (H-R[dK]R[dW]W[dV]V[dK]R[dK]W[dW]V-NH2), the “MIC E. coli, Medium” value in the test on Escherichia coli MG1655 was found to be 3.13 µM (≈ 5.99 µg/mL). The “MIC M.smegmatis, Medium” value in test [3] is on record as 6.25 µM (≈ 12 µg/mL). The “MIC Gentamicin resistant MRSA, Medium” value in test [4] was determined as 6.25 µM (≈ 12 µg/mL).
For the molecule `CC(C)[C@H](NC(=O)[C@H](NC(=O)[C@H](CCCCN)NC(=O)[C@@H](CCCCN)NC(=O)[C@H](CCCCN)NC(=O)[C@H](NC(=O)[C@@H](NC(=O)[C@H](NC(=O)[C@H](CCCCN)NC(=O)[C@@H](CCCCN)NC(=O)[C@@H](N)CCCCN)C(C)C)C(C)C)C(C)C)C(C)C)C(=O)N[C@H](Cc1c[nH]c2ccccc12)C(=O)N[C@@H](CCCCN)C(N)=O` [AS06] (H-K[dK]K[dV]V[dV]K[dK]K[dV]V[dW]K-NH2), in the test with Escherichia coli MG1655, the “MIC E. coli, Medium” value worked out at 25 µM (≈ 39.9 µg/mL). The “MIC M.smegmatis, Medium” value in test [3] came to 25 µM (≈ 39.9 µg/mL). The “MIC values (summary in discussion)” value in test [5] was around 50 µM (≈ 79.8 µg/mL). Also, the “MIC Gentamicin resistant MRSA, Medium” value in test [4] came to 50 µM (≈ 79.8 µg/mL).
As to `CC(C)[C@H](NC(=O)[C@H](NC(=O)[C@H](Cc1c[nH]c2ccccc12)NC(=O)[C@@H](Cc1c[nH]c2ccccc12)NC(=O)[C@H](CCCCN)NC(=O)[C@@H](CCCCN)NC(=O)[C@H](CCCCN)NC(=O)[C@H](NC(=O)[C@H](Cc1c[nH]c2ccccc12)NC(=O)[C@@H](Cc1c[nH]c2ccccc12)NC(=O)[C@H](CCCCN)NC(=O)[C@@H](CCCCN)NC(=O)[C@@H](N)CCCCN)C(C)C)C(C)C)C(N)=O` [AS03] (H-K[dK]K[dW]W[dV]K[dK]K[dW]W[dV]V-NH2), in test [1], the “MIC S. aureus clinical isolate” value amounted to 25 µM (≈ 45.7 µg/mL). Also, the “MIC E.coli clinical isolate” value in test [2] was determined as 25 µM (≈ 45.7 µg/mL). Further, the “MIC E. coli, Medium” value in the test with Escherichia coli MG1655 was 6.25 µM (≈ 11.4 µg/mL). For the same molecule, the “MIC M.smegmatis, Medium” value in test [3] came to 6.25 µM (≈ 11.4 µg/mL). Further, in test [5], the “MIC values (summary in discussion)” value is 1 to 10 µM. For the same molecule, the “MIC Gentamicin resistant MRSA, Medium” value in test [4] amounted to 3.13 µM (≈ 5.72 µg/mL).
